Test results from paper PMC12114840, “Exploring the Anticancer Properties of 1,2,3-Triazole-Substituted Andrographolide Derivatives” (Pharmaceuticals, 2025).

What was measured:
[1] = test system: MCF-7 cells (breast adenocarcinoma); test: Sulforhodamine B (SRB) antiproliferative assay, MCF-7; assay type: cell-based; conditions: Homo sapiens, MCF7, MCF-7, 48 h, mean ± SEM of four to six independent experiments
Procedure: The antiproliferative properties of andrographolide and all prepared derivatives (2–26) were evaluated against a panel of different cancer cell lines, including human pancreatic ductal adenocarcinoma (PANC-1), colorectal adenocarcinoma (HCT116), melanoma (A375), breast adenocarcinoma (MCF-7) and a non-tumorigenic colon (CCD-18Co) cell line using the sulforhodamine B assay.
Human breast adenocarcinoma MCF-7, pancreatic ductal adenocarcinoma PANC-1, melanoma A375, and non-tumorigenic colon CCD-18Co cell lines were purchased from ATCC (Rockville, MD, USA). Human colorectal adenocarcinoma HCT116 cells were kindly provided by B. Vogelstein (The Johns Hopkins Kimmel Cancer Center, Baltimore, MD, USA). Tumor cells were routinely cultured in RPMI-1640 medium with UltraGlutamine from Biowest (VWR, Carnaxide, Portugal) supplemented with 10% fetal bovine serum (FBS) from Biowest (VWR, Carnaxide, Portugal), except for the PANC-1 cells, which were grown in DMEM (4.5 g/L glucose) with stable L-glutamine and sodium pyruvate and supplemented with 10% FBS. The non-tumorigenic CCD-18Co cells were cultured in EMEM (Lonza, VWR, Carnaxide, Portugal), supplemented with 10% FBS. All cells were incubated at 37 °C in a humidified atmosphere of 5% CO2. Routine mycoplasma testing was performed using the MycoAlert™ PLUS mycoplasma detection kit (Lonza).
For the evaluation of the compound effect on cell proliferation, human cell lines were seeded in 96-well plates at a density of 5.0 × 10^3 (HCT116, MCF-7, PANC-1, A375, and CCD-18Co) cells per well, for 24 h. Cells were then treated with serial dilutions of the compound (ranging from 0.63 to 30 µM), for an additional 48 h incubation period. The growth inhibitory effects were assessed by SRB assay, as described in [58], and the half-maximal inhibitory concentration (IC50 values) were determined for each cell line using the GraphPad Prism software version 7.0 (La Jolla, CA, USA). Culture medium containing a maximum of 0.05% dimethyl sulfoxide (DMSO) was used as negative control.

PANC-1 cells [2] = test: Annexin V-FITC/PI double-staining apoptosis assay; assay type: cell-based, human; conditions: 48 h
Text: To further investigate the mechanism of action of the triazole derivative 12, an apoptosis analysis was subsequently performed in PANC-1 cells. The early stages of apoptosis are characterized by the disruption of membrane asymmetry and the translocation of phosphatidylserine from the inner to the outer leaflet of the plasma membrane, which can be detected using Annexin V-FITC, a protein with high affinity for phosphatidylserine. In the later stages of apoptosis, the cell membrane loses its integrity, allowing propidium iodide (PI) to penetrate into the cell. Thus, PANC-1 cells treated with compound 12 at 3 and 6 μM for 48 h were analyzed by flow cytometry after Annexin V-FITC and PI staining (Figure 1B, bottom panel; and Figure 1D). This analysis can distinguish and quantify viable cells (annexin V−, PI−), early apoptotic cells (annexin V+, PI−), late apoptotic cells (annexin V+, PI+), and necrotic cells (annexin V−/PI+). […] Cleavage of PARP-1 into an 89 kDa protein, cleaved PARP-1, occurs during programmed cell death (apoptosis) as a result of proteolytic processing by active caspase-3. Thus, cleaved PARP-1 is recognized as a marker of apoptosis.
The analyses were performed as described in the literature. In particular, 1.5 × 10^5 PANC-1 cells/well were seeded in 6-well plates and allowed to adhere overnight, followed by treatment with 3 µM and 6 µM of compound 12 for 48 h. For cell cycle analysis, cells were stained with propidium iodide (Sigma-Aldrich) and subjected to flow cytometry. Cell cycle phases were identified and quantified using the FlowJo X 10.0.7 software (Treestar, Ashland, OR, USA). For apoptosis analysis, cells were stained using the Annexin V-FITC Apoptosis Detection Kit I from BD Biosciences (Enzifarma, Porto, Portugal), according to the manufacturer’s instructions. The Accuri^TM C6 flow cytometer and the BD Accuri C6 software (BD Biosciences, Heidelberg, Germany) were used.

PANC-1 cells [3] = test: Scratch (wound healing) assay; assay type: cell-based, human; conditions: PANC-1, 1.35 µM, 6 h and 24 h
Text: Metastasis remains the greatest challenge in the clinical management of cancer. Cell migration is a key process that, during the whole cascade of cancer development, contributes to tumor invasion and metastasis. The scratch assay is a common in vitro technique used to assess two-dimensional cell migration and motility. It involves creating an artificial scratch or “wound” in a confluent monolayer of cells and then monitoring the progression of the wound over time. Therefore, a wound healing assay was used to evaluate the effect of compound 12 on the cell migration ability of PANC-1 cells.
Totals of 6 × 10^5 PANC-1 cells/well were grown to confluence in 6-well plates, and a fixed-width wound was created in the cell monolayer using a sterile 10 µL micropipette tip. Cells were treated with DMSO or 1.35 µM of compound 12 and images of the wound were captured at different time points (0, 6, and 24 h) using an inverted NIKON TE 2000-U microscope from Nikon Instruments Inc. (Izasa, Carnaxide, Portugal) at 100× magnification with a DXM1200F digital camera (Nikon Instruments Inc., Amstelveen, The Netherlands) and NIS-Elements microscope imaging software (version 4; Nikon Instruments Inc.). Wound closure was calculated by subtracting the wound area (measured using Fiji Software, version 1.54f) at the indicated time point of treatment from the wound area at the starting point (0 h).

`C=C1CC[C@@H]2[C@](C)(COC(C)=O)[C@H](OC(C)=O)CC[C@@]2(C)[C@@H]1C[C@H](C1=CCOC1=O)n1cc(-c2ccc(Br)cc2)nn1` [Compound 12, (12R)-4-bromophenyl-1,2,3-triazole-3,19-diacetoxy-14-deoxy-andrographolide] gave an IC50 [1] of 6.8 ± 0.3 µM, a viability at 3 µM (PANC-1 cells [2]; Homo sapiens, PANC-1, 3 µM, read-out: viable cells (annexin-V−, PI−; Q4)) of 79.7% and a viability at 6 µM (PANC-1 cells [2]; Homo sapiens, PANC-1, 6 µM, read-out: viable cells (annexin-V−, PI−; Q4)) of 68.4%. For the same compound, the “early apoptotic cells (annexin V+, PI−; Q3)” value (PANC-1 cells [2]; PANC-1, 3 µM) was 7.08%, the “late apoptotic cells (annexin V+, PI+; Q2)” value (PANC-1 cells [2]; PANC-1, 3 µM) was 10.2% and the “percentage of apoptotic cells (Annexin V+)” value (PANC-1 cells [2]; PANC-1, 3 µM) was 17.28%. The “early apoptotic cells (annexin V+, PI−; Q3)” value (PANC-1 cells [2]; PANC-1, 6 µM) was 13.3%, the “late apoptotic cells (annexin V+, PI+; Q2)” value (PANC-1 cells [2]; PANC-1, 6 µM) was 13.5% and the “percentage of apoptotic cells (Annexin V+)” value (PANC-1 cells [2]; PANC-1, 6 µM) was 26.8%. For the same compound, the “wound closure compared to control” value (PANC-1 cells [3]) was “significantly reduced the wound closure”.
